Where two headings read alike, the source gives them in different places.
What was measured:
HIV-1 RT WT = target: T1, HIV-1 RT WT (Human immunodeficiency virus type 1 group M subtype B, UniProt P03366); assay: Reverse Transcriptase (RT) assay, wild type; type: biochemical
T1 construct: mutations that occur in the reverse transcriptase segment of the pol gene
Description: (§1) Based upon testing of these compounds, as described below, it is known that they inhibit the RNA-dependent DNA polymerase activity of HIV-1 RT. Utilizing the Reverse Transcriptase (RT) Assay described below, compounds can be tested for their ability to inhibit the RNA-dependent DNA polymerase activity of HIV-1 RT. Certain specific compounds described in the Examples which appear below, were so tested. The results of this testing appear in Table 2 as IC50 (nM) and EC50 (nM).
(§2) The assays are as described in WO 01/96338A1, the contents of which are hereby incorporated herein. The results are listed in Table 2 as IC50(nM) and EC50 (nM).

[1] = test system: wild type HIV-1 replication; assay: Cell-based assay, wild type HIV
Description: as §2

HIV-1 RT K103N/Y181C = target: T2, HIV-1 RT K103N/Y181C (Human immunodeficiency virus type 1 group M subtype B, UniProt P03366, K702N/Y780C); assay: Reverse Transcriptase (RT) assay, double mutant K103N/Y181C; type: biochemical
T2 construct: mutations that occur in the reverse transcriptase segment of the pol gene
Description: as §1, §2

| Compound | IC50 (HIV-1 RT WT; wild type RT, read-out: IC50 WT) [nM] | EC50 [1] [nM] | IC50 (HIV-1 RT K103N/Y181C; double mutant K103N/Y181C RT, read-out: IC50 K103N/Y181C) [nM] | IC50 (HIV-1 RT WT) [nM] | IC50 (HIV-1 RT K103N/Y181C) [nM] | EC50 ([1]; Human immunodeficiency virus 1) [nM] |
| --- | --- | --- | --- | --- | --- | --- |
| 4′-{(9H-imidazo[1,2-d]dipyrido[2,3-b:3′,2′-f][1,4]diazepin-12-yl)ethoxy}-3′-methyl-[1,1′-biphenyl]4-acetic acid [Entry 119] | < 50 | < 10 | < 50 | – | – | – |
| CCN1c2ncc(CCOc3cccc4c3CNC(=O)N4)cc2-c2nc(C)cn2-c2cccnc21 [Entry 101] | – | – | – | < 50 | > 100 | – |
| CCN1c2ncc(CCOc3cccc4c3C=CS(=O)(=O)N4C)cc2-c2ncc(C)n2-c2cccnc21 [Entry 102] | – | – | – | < 50 | < 50 | < 10 |
| CCN1c2ncc(CCOc3cccc4c3CNC4=O)cc2-c2ncc(C)n2-c2cccnc21 [Entry 103] | – | – | – | < 50 | > 100 | < 10 |
| CCN1c2ncc(CCOc3cccc4c3CCS(=O)(=O)N4)cc2-c2ncc(C)n2-c2cccnc21 [Entry 104] | – | – | – | < 50 | 50 to 100 | – |
| CCN1c2ncc(CCOc3cccc4c3CNS4(=O)=O)cc2-c2ncc(C)n2-c2cccnc21 [Entry 105] | – | – | – | < 50 | < 50 | – |
| CCN1c2ncc(CCOc3cccc4c3COC(=O)N4)cc2-c2ncc(C)n2-c2cccnc21 [Entry 106] | – | – | – | < 50 | > 100 | – |
| CCN1c2ncc(CCOc3ccc4c(c3)C(C)(C)NS4(=O)=O)cc2-c2nccn2-c2c(C)ccnc21 [Entry 107] | – | – | – | < 50 | < 50 | – |
| CCN1c2ncc(CCOc3cccc4c3CNC(=O)N4)cc2-c2nccn2-c2c(C)ccnc21 [Entry 108] | – | – | – | < 50 | < 50 | – |
| CCN1c2ncc(CCOc3cccc4c3CNC(=O)N4)cc2-c2nccn2-c2cccnc21 [Entry 109] | – | – | – | < 50 | < 50 | – |
| CCN1c2ncc(CCOc3cccc4c3CCNC4=O)cc2-c2ncc(C)n2-c2cccnc21 [Entry 110, 9-Ethyl-3-methyl-12-{2-{(1,2,3,4-ttrahydro-1-oxo-5-isoquinolinyl)oxy}ethyl}-9H-imidazo[1,2-d]dipyrido[2,3-b:3′,2′-f][1,4]diazepine] | – | – | – | < 50 | > 100 | – |
| CCN1c2ncc(CCOc3cccc4c3CN(C)C(=O)N4C)cc2-c2ncc(C)n2-c2cccnc21 [Entry 111] | – | – | – | < 50 | > 100 | – |
| CCOC(=O)N1c2cccc(OCCc3cnc4c(c3)-c3nccn3-c3c(C)ccnc3N4CC)c2CS1(=O)=O [Entry 112] | – | – | – | < 50 | < 50 | – |
| CCN1c2ncc(CCOc3cccc4c3CS(=O)(=O)N4)cc2-c2nccn2-c2c(C)ccnc21 [Entry 113] | – | – | – | < 50 | 50 to 100 | – |
| CCN1c2ncc(CCOc3cccc4c3CS(=O)(=O)N4CC(=O)OC(C)(C)C)cc2-c2nccn2-c2c(C)ccnc21 [Entry 114] | – | – | – | < 50 | 50 to 100 | – |
| CCN1c2ncc(CCOc3cccc4c3CS(=O)(=O)N4CC(=O)O)cc2-c2nccn2-c2c(C)ccnc21 [Entry 115] | – | – | – | < 50 | 50 to 100 | > 50 |
| CCN1c2ncc(CCOc3ccc(C(=O)O)cc3C)cc2-c2nccn2-c2cccnc21 [Entry 117] | – | – | – | < 50 | > 100 | < 10 |
| CCN1c2ncc(CCOc3ccc(C(=O)O)cc3C)cc2-c2ncc(C)n2-c2cccnc21 [Entry 118] | – | – | – | < 50 | < 50 | – |
| CCN1c2ncc(CCOc3ccc(-c4ccc(CC(=O)O)cc4)cc3C)cc2-c2ncc(C)n2-c2cccnc21 [Entry 120] | – | – | – | < 50 | 50 to 100 | – |
| CCN1c2ncc(CCOc3ccc(C(=O)O)c4c3CCCC4)cc2-c2ncc(C)n2-c2cccnc21 [Entry 121] | – | – | – | < 50 | > 100 | – |
| CCN1c2ncc(CCOc3ccc(C(=O)O)c4ccccc34)cc2-c2ncc(C)n2-c2cccnc21 [Entry 122] | – | – | – | < 50 | > 100 | – |
